Measurements reported in the NIST ThermoML archive (doi:10.1016/j.jct.2016.04.014).

Settings: Liquid, Vibrating tube method

CCCCCCCC [octane]
Settings | mass density [kg/m3]
288.15 K, 100 kPa | 706.5
288.15 K, 1000 kPa | 707.2
288.15 K, 5000 kPa | 710.3
288.15 K, 10000 kPa | 714.1
288.15 K, 15000 kPa | 717.7
288.15 K, 20000 kPa | 721.2
288.15 K, 25000 kPa | 724.5
288.15 K, 30000 kPa | 727.7
288.15 K, 35000 kPa | 730.8
288.15 K, 40000 kPa | 733.7
288.15 K, 45000 kPa | 736.5
288.15 K, 50000 kPa | 739.2
288.15 K, 55000 kPa | 741.7
288.15 K, 60000 kPa | 744.1
293.15 K, 100 kPa | 702.5
293.15 K, 101 kPa | 702.58
293.15 K, 1000 kPa | 703.2
293.15 K, 5000 kPa | 706.4
293.15 K, 10000 kPa | 710.3
293.15 K, 15000 kPa | 714
293.15 K, 20000 kPa | 717.6
293.15 K, 25000 kPa | 721
293.15 K, 30000 kPa | 724.3
293.15 K, 35000 kPa | 727.5
293.15 K, 40000 kPa | 730.5
293.15 K, 45000 kPa | 733.3
293.15 K, 50000 kPa | 736
293.15 K, 55000 kPa | 738.6
293.15 K, 60000 kPa | 741
298.15 K, 100 kPa | 698.5
298.15 K, 1000 kPa | 699.2
298.15 K, 5000 kPa | 702.5
298.15 K, 10000 kPa | 706.5
298.15 K, 15000 kPa | 710.3
298.15 K, 20000 kPa | 714
298.15 K, 25000 kPa | 717.6
298.15 K, 30000 kPa | 720.9
298.15 K, 35000 kPa | 724.1
298.15 K, 40000 kPa | 727.2
298.15 K, 45000 kPa | 730.1
298.15 K, 50000 kPa | 732.9
298.15 K, 55000 kPa | 735.5
298.15 K, 60000 kPa | 738
303.15 K, 100 kPa | 694.4
303.15 K, 101 kPa | 694.48
303.15 K, 1000 kPa | 695.2
303.15 K, 5000 kPa | 698.6
303.15 K, 10000 kPa | 702.7
303.15 K, 15000 kPa | 706.7
303.15 K, 20000 kPa | 710.5
303.15 K, 25000 kPa | 714.1
303.15 K, 30000 kPa | 717.5
303.15 K, 35000 kPa | 720.9
303.15 K, 40000 kPa | 724
303.15 K, 45000 kPa | 727
303.15 K, 50000 kPa | 729.8
303.15 K, 55000 kPa | 732.5
303.15 K, 60000 kPa | 735
308.15 K, 100 kPa | 690.4
308.15 K, 1000 kPa | 691.2
308.15 K, 5000 kPa | 694.7
308.15 K, 10000 kPa | 698.9
308.15 K, 15000 kPa | 703
308.15 K, 20000 kPa | 706.9
308.15 K, 25000 kPa | 710.6
308.15 K, 30000 kPa | 714.2
308.15 K, 35000 kPa | 717.5
308.15 K, 40000 kPa | 720.8
308.15 K, 45000 kPa | 723.8
308.15 K, 50000 kPa | 726.7
308.15 K, 55000 kPa | 729.4
308.15 K, 60000 kPa | 731.9
313.15 K, 100 kPa | 686.3
313.15 K, 101 kPa | 686.32
313.15 K, 1000 kPa | 687.1
313.15 K, 5000 kPa | 690.8
313.15 K, 10000 kPa | 695.1
313.15 K, 15000 kPa | 699.3
313.15 K, 20000 kPa | 703.3
313.15 K, 25000 kPa | 707.2
313.15 K, 30000 kPa | 710.8
313.15 K, 35000 kPa | 714.3
313.15 K, 40000 kPa | 717.6
313.15 K, 45000 kPa | 720.7
313.15 K, 50000 kPa | 723.6
313.15 K, 55000 kPa | 726.3
313.15 K, 60000 kPa | 728.9
318.15 K, 100 kPa | 682.2
318.15 K, 1000 kPa | 683
318.15 K, 5000 kPa | 686.8
318.15 K, 10000 kPa | 691.3
318.15 K, 15000 kPa | 695.6
318.15 K, 20000 kPa | 699.7
318.15 K, 25000 kPa | 703.6
318.15 K, 30000 kPa | 707.4
318.15 K, 35000 kPa | 711
318.15 K, 40000 kPa | 714.3
318.15 K, 45000 kPa | 717.5
318.15 K, 50000 kPa | 720.5
318.15 K, 55000 kPa | 723.3
318.15 K, 60000 kPa | 725.9
323.15 K, 100 kPa | 678
323.15 K, 101 kPa | 678.09
323.15 K, 1000 kPa | 678.9
323.15 K, 5000 kPa | 682.8
323.15 K, 10000 kPa | 687.4
323.15 K, 15000 kPa | 691.9
323.15 K, 20000 kPa | 696.1
323.15 K, 25000 kPa | 700.2
323.15 K, 30000 kPa | 704
323.15 K, 35000 kPa | 707.7
323.15 K, 40000 kPa | 711.1
323.15 K, 45000 kPa | 714.4
323.15 K, 50000 kPa | 717.4
323.15 K, 55000 kPa | 720.3
323.15 K, 60000 kPa | 722.9
328.15 K, 100 kPa | 673.8
328.15 K, 1000 kPa | 674.7
328.15 K, 5000 kPa | 678.7
328.15 K, 10000 kPa | 683.5
328.15 K, 15000 kPa | 688.1
328.15 K, 20000 kPa | 692.5
328.15 K, 25000 kPa | 696.7
328.15 K, 30000 kPa | 700.7
328.15 K, 35000 kPa | 704.4
328.15 K, 40000 kPa | 707.9
328.15 K, 45000 kPa | 711.3
328.15 K, 50000 kPa | 714.4
328.15 K, 55000 kPa | 717.3
328.15 K, 60000 kPa | 719.9
333.15 K, 100 kPa | 669.7
333.15 K, 1000 kPa | 670.6
333.15 K, 5000 kPa | 674.8
333.15 K, 10000 kPa | 679.7
333.15 K, 15000 kPa | 684.5
333.15 K, 20000 kPa | 689
333.15 K, 25000 kPa | 693.2
333.15 K, 30000 kPa | 697.3
333.15 K, 35000 kPa | 701.1
333.15 K, 40000 kPa | 704.7
333.15 K, 45000 kPa | 708.1
333.15 K, 50000 kPa | 711.3
333.15 K, 55000 kPa | 714.2
333.15 K, 60000 kPa | 716.9
343.15 K, 100 kPa | 661.2
343.15 K, 1000 kPa | 662.2
343.15 K, 5000 kPa | 666.6
343.15 K, 10000 kPa | 671.9
343.15 K, 15000 kPa | 677
343.15 K, 20000 kPa | 681.8
343.15 K, 25000 kPa | 686.3
343.15 K, 30000 kPa | 690.6
343.15 K, 35000 kPa | 694.6
343.15 K, 40000 kPa | 698.4
343.15 K, 45000 kPa | 701.9
343.15 K, 50000 kPa | 705.2
343.15 K, 55000 kPa | 708.2
343.15 K, 60000 kPa | 711
353.15 K, 100 kPa | 652.6
353.15 K, 1000 kPa | 653.7
353.15 K, 5000 kPa | 658.4
353.15 K, 10000 kPa | 664.1
353.15 K, 15000 kPa | 669.4
353.15 K, 20000 kPa | 674.5
353.15 K, 25000 kPa | 679.3
353.15 K, 30000 kPa | 683.9
353.15 K, 35000 kPa | 688.1
353.15 K, 40000 kPa | 692.1
353.15 K, 45000 kPa | 695.7
353.15 K, 50000 kPa | 699.1
353.15 K, 55000 kPa | 702.3
353.15 K, 60000 kPa | 705.1
363.15 K, 100 kPa | 643.8
363.15 K, 1000 kPa | 645
363.15 K, 5000 kPa | 650.1
363.15 K, 10000 kPa | 656.1
363.15 K, 15000 kPa | 661.9
363.15 K, 20000 kPa | 667.3
363.15 K, 25000 kPa | 672.4
363.15 K, 30000 kPa | 677.2
363.15 K, 35000 kPa | 681.6
363.15 K, 40000 kPa | 685.8
363.15 K, 45000 kPa | 689.6
363.15 K, 50000 kPa | 693.1
363.15 K, 55000 kPa | 696.3
363.15 K, 60000 kPa | 699.2
373.15 K, 100 kPa | 634.7
373.15 K, 1000 kPa | 636.3
373.15 K, 5000 kPa | 641.8
373.15 K, 10000 kPa | 648.2
373.15 K, 15000 kPa | 654.4
373.15 K, 20000 kPa | 660.1
373.15 K, 25000 kPa | 665.5
373.15 K, 30000 kPa | 670.6
373.15 K, 35000 kPa | 675.3
373.15 K, 40000 kPa | 679.6
373.15 K, 45000 kPa | 683.6
373.15 K, 50000 kPa | 687.3
373.15 K, 55000 kPa | 690.5
373.15 K, 60000 kPa | 693.5
393.15 K, 100 kPa | 616.3
393.15 K, 1000 kPa | 618.1
393.15 K, 5000 kPa | 624.3
393.15 K, 10000 kPa | 631.8
393.15 K, 15000 kPa | 638.8
393.15 K, 20000 kPa | 645.3
393.15 K, 25000 kPa | 651.5
393.15 K, 30000 kPa | 657.1
393.15 K, 35000 kPa | 662.3
393.15 K, 40000 kPa | 667.1
393.15 K, 45000 kPa | 671.4
393.15 K, 50000 kPa | 675.3
393.15 K, 55000 kPa | 678.8
393.15 K, 60000 kPa | 681.8
413.15 K, 1000 kPa | 599.3
413.15 K, 5000 kPa | 606.6
413.15 K, 10000 kPa | 615.1
413.15 K, 15000 kPa | 623.1
413.15 K, 20000 kPa | 630.6
413.15 K, 25000 kPa | 637.4
413.15 K, 30000 kPa | 643.8
413.15 K, 35000 kPa | 649.6
413.15 K, 40000 kPa | 654.8
413.15 K, 45000 kPa | 659.5
413.15 K, 50000 kPa | 663.6
413.15 K, 55000 kPa | 667.2
413.15 K, 60000 kPa | 670.2
